Laboratory results reported in US10765114B2, “4-amino-6-(pyridyl and 2-substitutedphenyl)-picolinates and 6-amino-2-(pyridyl and 2-substitutedphenyl)-pyrimidine-4-carboxylates and their use as herbicides” (Dow AgroSciences LLC, priority 2013, dated 2020).

Legend:
Experiment in all cases: Post-Emergent Test III (Wheat and Barley)
[1] = tested on: APESV (windgrass); assay type: in vivo, Apera spica-venti
Outline: (§1)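 Greenhouse plants (~14 h photoperiod, 18/17 °C) at second-third true leaf stage were track-sprayed at 187 L/ha with acetone/DMSO-based spray containing Agri-Dex crop oil and X-77. Rates ran from the high rate down to 1/16×. Injury was scored visually after 21 days (0-100%); GR values came from probit analysis.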

[2] = tested on: KCHSC (kochia); assay type: in vivo, Kochia scoparia
Outline: as §1

[3] = tested on: BRSSS; assay type: in vivo; conditions: for Visual Growth Reduction (%) 21 Days After Application, BRSSS: postemergence
Outline: as §1

[4] = tested on: HORSS; assay type: in vivo
Outline: as §1

[5] = tested on: TRZSS; assay type: in vivo
Outline: as §1

[6] = tested on: LAMPU (purple deadnettle); assay type: in vivo, Lamium purpureum; conditions: for Visual Growth Reduction (%) 21 Days After Application, LAMPU: postemergence
Method: (§2) Seeds of the desired test plant species were planted in Sun Gro MetroMix® 306 planting mixture, which typically has a pH of 6.0 to 6.8 and an organic matter content of about 30 percent, in plastic pots with a surface area of 103.2 square centimeters (cm^2). When required to ensure good germination and healthy plants, a fungicide treatment and/or other chemical or physical treatment was applied. The plants were grown for 7-36 days in a greenhouse with an approximate 14 h photoperiod which was maintained at about 18° C. during the day and 17° C. during the night. Nutrients and water were added on a regular basis and supplemental lighting was provided with overhead metal halide 1000-Watt lamps as necessary. The plants were employed for testing when they reached the second or third true leaf stage.
(§3) A weighed amount, determined by the highest rate to be tested, of each test compound was placed in a 25 mL glass vial and was dissolved in 4 mL of a 97:3 v/v mixture of acetone and DMSO to obtain concentrated stock solutions. […] The concentrated stock solutions obtained were diluted with 20 mL of an aqueous mixture containing acetone, water, isopropyl alcohol, DMSO, Agri-Dex crop oil concentrate, and X-77 surfactant in a 48:39:10:1.5:1.5:0.02 v/v ratio to obtain spray solutions containing the highest application rates. Additional application rates were obtained by serial dilution of 12 mL of the high rate solution into a solution containing 2 mL of 97:3 v/v mixture of acetone and DMSO and 10 mL of an aqueous mixture containing acetone, water, isopropyl alcohol, DMSO, Agri-Dex crop oil concentrate, and X-77 surfactant in a 48:39:10:1.5:1.5:0.02 v/v ratio to obtain ½×, ¼×, ⅛× and 1/16× rates of the high rate. Compound requirements are based upon a 12 mL application volume at a rate of 187 liters per hectare (L/ha). Formulated compounds were applied to the plant material with an overhead Mandel track sprayer equipped with 8002E nozzles calibrated to deliver 187 L/ha over an application area of 0.503 square meters at a spray height of 18 inches (43 cm) above the average plant canopy height. Control plants were sprayed in the same manner with the solvent blank.
(§4) The treated plants and control plants were placed in a greenhouse as described above and watered by subirrigation to prevent wash-off of the test compounds. After 21 dAYS, the condition of the test plants as compared with that of the untreated plants was determined visually and scored on a scale of 0 to 100 percent where 0 corresponds to no injury and 100 corresponds to complete kill and presented as indicated in Table A.
(§5) By applying the well-accepted probit analysis as described by J. Berkson in Journal of the American Statistical Society, 48, 565 (1953) and by D. Finney in “Probit Analysis” Cambridge University Press (1952), herbicidal injury of a specific compound at various rates can be used to calculate GR10, GR20, GR50, GR80 and GR90 values, which are defined as growth reduction factors that correspond to the effective dose of herbicide required to provide plant growth reduction (GR) of 10 percent, 20 percent, 50 percent, 80 percent and 90 percent, respectively. Probit analysis was applied to data collected from multiple dose rates of individual compounds utilizing the procedures explained in the following examples. The analysis of those dose rates is captured in the following tables.

[7] = tested on: SASKR (Russian thistle); assay type: in vivo, Salsola tragus; conditions: for Visual Growth Reduction (%) 21 Days After Application, SASKR: postemergence
Method: as §2, §3, §4, §5

[8] = tested on: VERPE (Persian speedwell); assay type: in vivo, Veronica persica; conditions: for Visual Growth Reduction (%) 21 Days After Application, VERPE: postemergence
Method: as §2, §3, §4, §5

[9] = effective dose for growth reduction of 50 percent, probit analysis
[10] = effective dose for growth reduction of 80 percent, probit analysis
[11] = effective dose for growth reduction of 90 percent, probit analysis
[12] = effective dose for growth reduction of 10 percent, probit analysis
[13] = effective dose for growth reduction of 20 percent, probit analysis

Cc1c(-c2cc(N)c(Cl)c(C(=O)O)n2)ccc(Cl)c1F [Compound 52]
pest or weed control at 35 g/ha ([1]; Apera spica-venti, post-emergence, 504 h, 35 g ai/ha, postemergence, read-out: Visual Growth Reduction (%) 21 Days After Application, APESV): 60 to 74%
pest or weed control at 70 g/ha ([1]; Apera spica-venti, post-emergence, 504 h, 70 g ai/ha, postemergence, read-out: Visual Growth Reduction (%) 21 Days After Application, APESV): 75 to 84%
pest or weed control at 140 g/ha ([1]; Apera spica-venti, post-emergence, 504 h, 140 g ai/ha, postemergence, read-out: Visual Growth Reduction (%) 21 Days After Application, APESV): 85 to 94%
GR50, APESV [1, 9]: 23 g ai/ha
GR80, APESV [1, 10]: 63 g ai/ha
GR90, APESV [1, 11]: 107 g ai/ha
pest or weed control at 35 g/ha ([2]; Bassia scoparia, post-emergence, 504 h, 35 g ai/ha, postemergence, read-out: Visual Growth Reduction (%) 21 Days After Application, KCHSC): 95 to 100%
pest or weed control at 70 g/ha ([2]; Bassia scoparia, post-emergence, 504 h, 70 g ai/ha, postemergence, read-out: Visual Growth Reduction (%) 21 Days After Application, KCHSC): 95 to 100%
pest or weed control at 140 g/ha ([2]; Bassia scoparia, post-emergence, 504 h, 140 g ai/ha, postemergence, read-out: Visual Growth Reduction (%) 21 Days After Application, KCHSC): 95 to 100%
GR50, KCHSC [2, 9]: 1 g ai/ha
GR80, KCHSC [2, 10]: 3 g ai/ha
GR90, KCHSC [2, 11]: 9 g ai/ha
Visual Growth Reduction (%) 21 Days After Application, BRSSS ([3]; 35 g ai/ha): B (85-94)
Visual Growth Reduction (%) 21 Days After Application, BRSSS ([3]; 70 g ai/ha): B (85-94)
Visual Growth Reduction (%) 21 Days After Application, BRSSS ([3]; 140 g ai/ha): B (85-94)
GR50, BRSSS [3, 9]: 1 g ai/ha
GR80, BRSSS [3, 10]: 11 g ai/ha
GR90, BRSSS [3, 11]: 41 g ai/ha
pest or weed control at 35 g/ha ([4]; Hordeum vulgare, post-emergence, 504 h, 35 g ai/ha, postemergence, read-out: Visual Growth Reduction (%) 21 Days After Application, HORSS): 60 to 74%
pest or weed control at 70 g/ha ([4]; Hordeum vulgare, post-emergence, 504 h, 70 g ai/ha, postemergence, read-out: Visual Growth Reduction (%) 21 Days After Application, HORSS): 75 to 84%
pest or weed control at 140 g/ha ([4]; Hordeum vulgare, post-emergence, 504 h, 140 g ai/ha, postemergence, read-out: Visual Growth Reduction (%) 21 Days After Application, HORSS): 85 to 94%
GR10, HORSS [4, 12]: 1 g ai/ha
GR20, HORSS [4, 13]: 2 g ai/ha
pest or weed control at 35 g/ha ([5]; Triticum aestivum, post-emergence, 504 h, 35 g ai/ha, postemergence, read-out: Visual Growth Reduction (%) 21 Days After Application, TRZSS): 60 to 74%
pest or weed control at 70 g/ha ([5]; Triticum aestivum, post-emergence, 504 h, 70 g ai/ha, postemergence, read-out: Visual Growth Reduction (%) 21 Days After Application, TRZSS): 75 to 84%
pest or weed control at 140 g/ha ([5]; Triticum aestivum, post-emergence, 504 h, 140 g ai/ha, postemergence, read-out: Visual Growth Reduction (%) 21 Days After Application, TRZSS): 75 to 84%
GR10, TRZSS [5, 12]: 1 g ai/ha
GR20, TRZSS [5, 13]: 1 g ai/ha
Visual Growth Reduction (%) 21 Days After Application, LAMPU ([6]; 35 g ai/ha): A (95-100)
Visual Growth Reduction (%) 21 Days After Application, LAMPU ([6]; 70 g ai/ha): A (95-100)
Visual Growth Reduction (%) 21 Days After Application, LAMPU ([6]; 140 g ai/ha): A (95-100)
GR50, LAMPU [6, 9]: <17.5 g ai/ha
GR80, LAMPU [6, 10]: <17.5 g ai/ha
GR90, LAMPU [6, 11]: <17.5 g ai/ha
Visual Growth Reduction (%) 21 Days After Application, SASKR ([7]; 35 g ai/ha): D (60-74)
Visual Growth Reduction (%) 21 Days After Application, SASKR ([7]; 70 g ai/ha): D (60-74)
Visual Growth Reduction (%) 21 Days After Application, SASKR ([7]; 140 g ai/ha): C (75-84)
GR50, SASKR [7, 9]: 1 g ai/ha
GR80, SASKR [7, 10]: >140 g ai/ha
GR90, SASKR [7, 11]: >140 g ai/ha
Visual Growth Reduction (%) 21 Days After Application, VERPE ([8]; 35 g ai/ha): G (0-29)
Visual Growth Reduction (%) 21 Days After Application, VERPE ([8]; 70 g ai/ha): G (0-29)
Visual Growth Reduction (%) 21 Days After Application, VERPE ([8]; 140 g ai/ha): E (45-59)
GR50, VERPE [8, 9]: >140 g ai/ha
GR80, VERPE [8, 10]: >140 g ai/ha
GR90, VERPE [8, 11]: >140 g ai/ha
